Data published in patent publication US10647675B2 (priority 2015, dated 2020).
In brackets after ≈: the same amount, converted by molar mass.

Experiments:
[1] = tested on: Trichophyton mentagrophytes SM-110; assay: Antifungal activity evaluation test: minimum inhibitory concentration (MIC), broth dilution by reference to CLSI M38-A2; format: cell-based; details: SM110, read-out: MIC (T. menta.)
Procedure, shortened: (§1)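 MIC read visually as lowest concentration inhibiting growth by at least 80% relative to control after 4 days at 35° C. Trichophyton strains inoculated at 2×10^3 cells/mL final in MOPS-buffered RPMI 1640 (pH 7.0); compounds as 2-fold DMSO series, CLSI M38-A2 basis.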

[2] = tested on: Trichophyton rubrum KD-1130; assay: as above; format: cell-based; details: KD1130, read-out: MIC (T. rubrum)
Procedure, shortened: as §1

[3] = Nail permeability test through human nail using Franz cell; format: in vitro ADME; details: 5% in propylene glycol:ethanol (1:4), 32° C.
Protocol: Permeability through human nail was measured by the method shown below using Franz cell. • Test Preparation: A test compound was dissolved in a propylene glycol:ethanol (1:4) mixed solution at a concentration of 5% to give a test preparation. As control compounds terbinafine and amorolfine were used. • (1) Human nail (thickness 300-500 μm) was fixed using a nail adapter for Franz cell, and mounted on Franz cell. • (2) The receptor chamber of the Franz cell was filled with phosphate buffer, and placed in a thermostatic chamber at 32° C. • (3) A test preparation was applied to the aforementioned human nail at 61 μL/cm^2, after which a receptor solution was collected over days, and the concentration of the test compound in the receptor was measured by a liquid chromatography mass spectrometry method (LC/MS/MS). The cumulative amount of drug permeation (μg/cm^2) was calculated from the measured drug concentration in the receptor. A cumulative amount of drug permeation relative to the time after start of the test was plotted and the slope at final 4 time points was taken as Flux (μg/cm^2/day). The abbreviations in the Table mean the following compounds • TBF: terbinafine • AMF: amorolfine

Compound | MIC [1] | MIC [2] | nail permeability (Flux) [3]
COc1ccccc1-c1cccnc1Cc1ccc(C(F)(F)F)cc1 [I-439, 3-(2-methoxyphenyl)-2-[4-(trifluoromethyl)benzyl]pyridine] | 0.2 to 0.78 µg/mL (≈ 0.582 to 2.27 µM) | 0.2 to 0.78 µg/mL (≈ 0.582 to 2.27 µM) | 
O=C1CCc2cccc(-c3cccnc3Oc3ccc(C(F)(F)F)nc3)c21 [I-40, 7-(2-{[6-(trifluoromethyl)pyridin-3-yl]oxy}pyridin-3-yl)-2,3-dihydro-1H-inden-1-one] | 0.2 to 0.78 µg/mL (≈ 0.54 to 2.11 µM) | 0.2 to 0.78 µg/mL (≈ 0.54 to 2.11 µM) | 
COc1ncccc1-c1cccnc1Oc1ccc(C(C)(F)F)cc1 [I-298] | ≤ 0.1 µg/mL | ≤ 0.1 µg/mL | 
Cc1nn(C)c(Cl)c1-c1cccnc1Oc1ccc(C(F)(F)F)cc1 [I-220, 3-(5-chloro-1,3-dimethyl-1H-pyrazol-4-yl)-2-[4-(trifluoromethyl)phenoxy]pyridine] | ≤ 0.1 µg/mL | ≤ 0.1 µg/mL | 
COc1cnccc1-c1cccnc1Oc1ccc(C(C)(F)F)nc1 [I-89, 2-{[6-(1,1-difluoroethyl)pyridin-3-yl]oxy}-3′-methoxy-3,4′-bipyridine] | 0.2 to 0.78 µg/mL (≈ 0.583 to 2.27 µM) | 0.2 to 0.78 µg/mL (≈ 0.583 to 2.27 µM) | 
COc1ccnc(OC)c1-c1cccnc1Oc1ccc(C(F)(F)F)cc1 [I-203, 2,4-dimethoxy-2′-[4-(trifluoromethyl)phenoxy]-3,3′-bipyridine] | ≤ 0.1 µg/mL | ≤ 0.1 µg/mL | 
CCN(C)c1ncc(Oc2ncccc2-c2cccc3c2OCC3)cn1 [I-340, 5-{[3-(2,3-dihydrobenzofuran-7-yl)pyridin-2-yl]oxy}-N-ethyl-N-methylpyrimidin-2-amine] | ≤ 0.1 µg/mL | ≤ 0.1 µg/mL | 
COc1ncccc1-c1cccnc1Oc1cnc(C2CC2)c(Cl)c1 [I-131, 2-[(5-chloro-6-cyclopropylpyridin-3-yl)oxy]-2′-methoxy-3,3′-bipyridine] | 0.2 to 0.78 µg/mL (≈ 0.565 to 2.2 µM) | 0.2 to 0.78 µg/mL (≈ 0.565 to 2.2 µM) | 
COc1cc(-c2cncnc2Oc2ccc(C(F)F)nc2)c(F)cc1F [I-363, 5-(2,4-difluoro-5-methoxyphenyl)-4-{[6-(difluoromethyl)pyridin-3-yl]oxy}pyrimidine] | ≤ 0.1 µg/mL | ≤ 0.1 µg/mL | 
CCOC(=O)CCc1ncc(Oc2ncccc2-c2ccc(F)cc2OC)cn1 [I-195, ethyl 3-(5-{[3-(4-fluoro-2-methoxyphenyl)pyridin-2-yl]oxy}-pyrimidin-2-yl)propionate] | 0.2 to 0.78 µg/mL (≈ 0.503 to 1.96 µM) | 0.2 to 0.78 µg/mL (≈ 0.503 to 1.96 µM) | 
CCOCC(F)(F)c1ccc(Oc2ncccc2-c2ccc(F)cc2OC)cn1 [I-155, 2-{[6-(2-ethoxy-1,1-difluoroethyl)pyridin-3-yl]oxy}-3-(4-fluoro-2-methoxyphenyl)pyridine] | ≤ 0.1 µg/mL | ≤ 0.1 µg/mL | 
COC(=O)c1ccccc1-c1cccnc1Oc1ccc(C(F)(F)F)nc1 [I-20, methyl 2-(2-{[6-(trifluoromethyl)pyridin-3-yl]oxy}pyridin-3-yl)benzoate] | 1.56 to 6.25 µg/mL (≈ 4.17 to 16.7 µM) | 0.2 to 0.78 µg/mL (≈ 0.534 to 2.08 µM) | 

Continued, values first:

MIC [1] | MIC [2] | nail permeability (Flux) [3] | Compound
≤ 0.1 µg/mL | ≤ 0.1 µg/mL | D (D: <0.001) | CCC(C)(C)c1ccc(CC(C)CN2C[C@@H](C)O[C@@H](C)C2)cc1 (stereo partly shown) [AMF, amorolfine, reference compound]
≤ 0.1 µg/mL | ≤ 0.1 µg/mL | D (D: <0.001) | CN(C/C=C/C#CC(C)(C)C)Cc1cccc2ccccc12 [TBF, terbinafine, reference compound]
≤ 0.1 µg/mL | ≤ 0.1 µg/mL |  | COc1c(Cl)cncc1-c1cncnc1Oc1ccc(C(F)(F)F)cc1 [I-331, 5-(5-chloro-4-methoxypyridin-3-yl)-4-[4-(trifluoromethyl)phenoxy]pyrimidine]
≤ 0.1 µg/mL | ≤ 0.1 µg/mL |  | CCCN(C)c1ncc(Oc2ncccc2-c2cc(Cl)cnc2OC)cn1 [I-452]
≤ 0.1 µg/mL | ≤ 0.1 µg/mL |  | COc1c(F)cncc1-c1cccnc1Oc1ccc(C(F)(F)F)cc1 [I-212, 5′-fluoro-4′-methoxy-2-[4-(trifluoromethyl)phenoxy]-3,3′-bipyridine]
≤ 0.1 µg/mL | ≤ 0.1 µg/mL |  | CCOC(=O)CN(C)c1ncc(Oc2ncccc2-c2ccc(F)cc2OC)cn1 [I-386, ethyl 2-[(5-{[3-(4-fluoro-2-methoxyphenyl)pyridin-2-yl]oxy}-pyrimidin-2-yl)(methyl)amino]acetate]
≤ 0.1 µg/mL | ≤ 0.1 µg/mL |  | COc1cc(F)ccc1-c1cccnc1Oc1ccc(C(C)(F)F)nc1 [I-82]
